Results taken from US20260265216A1, “NOVEL THIOREDOXIN REDUCTASE INHIBITORS” (GENEXPLAIN GMBH, priority 2021, published 2026).
Structures can show the parent of a compound that is named as a salt.

Legend:
Solubility = assay type: physicochemical; settings: solvent in which soluble
MCF7-Cas9 = test: Growth suppression assay (resazurin); assay type: cell-based; settings: 48 hours, hydrochloride
Method: (§1) Cells were grown in 96-well plates at a density of 3000 cells per well with or without doxycycline and treated with compounds. After 48 hours of incubation the proliferative cell reagent resazurin (Thermo Fisher Scientific) was added to the cells. The degree of resazurin reduction, which reflects cell viability, was measured by microplate reader by monitoring the absorbance at 570 nm and 600 nm, according to the manufacturer.
(§2) Two carcinoma cell lines, MCF7 (breast carcinoma) and HCT116 (colon carcinoma) grown in 96-well plates, were treated with increasing concentrations of the synthesized compounds, ranging from […]. After 48 hours of incubation the proliferative cell reagent resazurin was added to the cells. The degree of resazurin reduction, which reflects cell viability, was measured by microplate reader by monitoring the absorbance at 570 nm and 600 nm, according to the manufacturer and the IC50 was determined (Table 1).

HCT116-Cas9 = test: Growth suppression assay (resazurin); assay type: cell-based; settings: 48 hours
Method: as §1, §2

| SMILES | Solubility (Solubility) | also measured |
| --- | --- | --- |
| N#Cc1c(-c2ccncc2)[n+]([O-])c2cc(N3CCOCC3)c(F)cc2[n+]1[O-] [Compound 1a, 7-Fluoro-6-(morpholin-4-yl)-3-(pyridin-4-yl)quinoxaline-2-carbonitrile 1,4-dioxide] | Warm DMSO |  |
| N#Cc1c(-c2ccncc2)[n+]([O-])c2cc(N3CCOCC3)c(F)cc2[n+]1[O-] [1a*HCl, 7-Fluoro-6-(morpholin-4-yl)-3-(pyridin-4-yl)quinoxaline-2-carbonitrile-1,4-dioxide hydrochloride] |  | IC50 (MCF7-Cas9): > 10 µM; IC50 (HCT116-Cas9; hydrochloride): 9.3 µM |
| N#Cc1c(-c2ccncc2)[n+]([O-])c2cc(F)c(N3CCOCC3)cc2[n+]1[O-] [Compound 1b, 6-Fluoro-7-(morpholin-4-yl)-3-(pyridin-4-yl)quinoxaline-2-carbonitrile-1,4-dioxide] | Warm DMSO |  |
| N#Cc1c(-c2cccnc2)[n+]([O-])c2cc(F)c(N3CCOCC3)cc2[n+]1[O-] [Compound 1d, 6-Fluoro-7-(morpholin-4-yl)-3-(pyridin-3-yl)quinoxaline-2-carbonitrile-1,4-dioxide] | Warm DMSO |  |
| N#Cc1c(-c2ccncc2)[n+]([O-])c2cc(F)c(N3CCOCC3)cc2[n+]1[O-] [1b*MsOH, 6-Fluoro-7-(morpholin-4-yl)-3-(pyridin-4-yl)quinoxaline-2-carbonitrile-1,4-dioxide methanesulfonate] |  | IC50 (HCT116-Cas9; methanesulfonate): 3.4 µM |

Further lines, with some results ahead:

| Solubility (Solubility) | SMILES | also measured |
| --- | --- | --- |
| Warm DMSO | N#Cc1c(-c2cccnc2)[n+]([O-])c2cc(F)c(N3CCCC3)cc2[n+]1[O-] [Compound 1f, 6-Fluoro-7-(pyrrolidin-1-yl)-3-(pyridin-3-yl)quinoxaline-2-carbonitrile-1,4-dioxide] |  |
| Warm DMSO | N#Cc1c(-c2cccnc2)[n+]([O-])c2cc(N3CCOCC3)c(F)cc2[n+]1[O-] [Compound 1c, 7-Fluoro-6-(morpholin-4-yl)-3-(pyridin-3-yl)quinoxaline-2-carbonitrile-1,4-dioxide] |  |
| Warm DMSO | N#Cc1c(-c2cccnc2)[n+]([O-])c2cc(F)c(N3CCCCC3)cc2[n+]1[O-] [Compound 1g, 6-Fluoro-7-(piperidin-1-yl)-3-(pyridin-3-yl)quinoxaline-2-carbonitrile-1,4-dioxide] |  |
